According to patent US20080248077A1, “Formulation” (ASTRAZENECA AB, priority 2005, published 2008):
In brackets after ≈: the same amount, converted by molar mass. Read-outs that look alike come from different tables or passages of the source.

Experiment: water solubility of anastrozole
Type: physicochemical

- solubility (at 25° C., read-out: water solubility): 530 µg/mL (≈ 1810 µM)
- solubility (read-out: aqueous solubility): 530 µg/mL (≈ 1810 µM)
SMILES: CC(C)(C#N)c1cc(Cn2cncn2)cc(C(C)(C)C#N)c1 [anastrozole, Anastrozole]
